Results taken from patent publication US9512086B2, “Compound for promoting apoptosis of cancer cells and a pharmaceutical composition containing the same and uses thereof” (National Chiao Tung University, priority 2014, dated 2016).

Legend:
[1] = target: T1, SYK (splenic tyrosine kinase) (Homo sapiens, UniProt P43405); experiment: KinaseProfiler assay, SYK; type: biochemical; conditions: SYK; 10 μM; read-out: KAR value (kinase activity remaining)
T1 construct: purchased Merck Millipore (KinaseProfiler service)
From the text: (§1) The kinase activity remaining (KAR) value is […] related to kinase activity. […]

[2] = test system: H1299 human non-small cell lung cell line; experiment: MTT cell viability, H1299 cells; type: cell-based; conditions: 24 hours
Method: After drug treatment, the cells were washed with PBS and replaced with fresh complete RPMI-1640 medium for 2 days. Thereafter, the medium was replaced and the cells were incubated with 0.5 mg/mL of MTT reagent (Sigma Chemical Co., St. Louis, Mo.) in complete RPMI-1640 medium for 4 hours. The intensity of formazan was measured at 565 nm using a plate reader (VERSAmax, Molecular Dynamics, Sunnyvale, Calif.). The relative percentage of cell viability was calculated by dividing the absorbance of treated cells by that of the control in each experiment.

A549 cells [3] = experiment: Cell growth, cell number by hemocytometer; type: cell-based, human; conditions: 30 μM for 24 hours, then cultured 2-6 days
Method: The cells were washed with PBS after the treatment. […] The cell number was calculated with hemocytometer.

[4] = target: T2, CHEK1 (checkpoint kinase-1) (Homo sapiens, UniProt O14757); experiment: KinaseProfiler assay, CHEK1; type: biochemical; conditions: read-out: KAR value (kinase activity remaining)
T2 construct: purchased Merck Millipore (KinaseProfiler service)
From the text: The kinase activity remaining (KAR) value is inversely related to kinase activity.

[5] = target: T3, LIMK1 (LIM motif-containing protein kinase-1) (Homo sapiens, UniProt P53667); experiment: KinaseProfiler assay, LIMK1; type: biochemical; conditions: LIMK1; 10 μM; read-out: KAR value (kinase activity remaining)
T3 construct: purchased Merck Millipore (KinaseProfiler service)
From the text: as §1

A549 cells [6] = experiment: Survivin overexpression (pCT-GFP-sur8 transfection) and MTT cell viability; type: cell-based, human; conditions: A549 cells transfected with pCT-GFP-sur8 vs pCT-GFP2
Method: To further determine the effect that Analogue-18 inhibits surviving so as to induce apoptosis. The pCT-GFP2 and pCT-GFP-sur8 were employed for transfection using Lipofectamine™ 2000 (Invitrogen) according to the manufacturer's instructions. The pCT-GFP-sur8 overexpressed surviving, and the pCT-GFP2 only overexpressed green fluorescent protein and was used as a control. A549 cells were plated in 60-mm Petri dish at a density of 2×10^6 per well for 16 to 20 hours, then were transfected with 20 μg of pCT-GFP-sur8 or pCT-GFP2 in serum-free medium for 8 hours at 37° C. in a CO2 incubator. Then, the equal amount medium with 20% fetal bovine serum (FBS) was added without removing the transfection mixture. And proceed the incubation for additional 24 hours. After transfection, the cells were subjected to cytotoxicity assay according to Example 2 and Western blot analysis according to Example 4.

[7] = target: T4, CSNK2A1 (casein kinase-2) (Homo sapiens, UniProt P68400); experiment: KinaseProfiler assay, CSNK2A1; type: biochemical; conditions: CSNK2A1; 10 μM; read-out: KAR value (kinase activity remaining)
T4 construct: purchased Merck Millipore (KinaseProfiler service)
From the text: as §1

EGFR protein kinase = target: T5, EGFR protein kinase (Homo sapiens, UniProt P00533); experiment: ADP-Glo Kinase Assay, EGFR protein kinase activity; type: biochemical
T5 construct: purchased Promega
T5 sequence (P00533 25-1210): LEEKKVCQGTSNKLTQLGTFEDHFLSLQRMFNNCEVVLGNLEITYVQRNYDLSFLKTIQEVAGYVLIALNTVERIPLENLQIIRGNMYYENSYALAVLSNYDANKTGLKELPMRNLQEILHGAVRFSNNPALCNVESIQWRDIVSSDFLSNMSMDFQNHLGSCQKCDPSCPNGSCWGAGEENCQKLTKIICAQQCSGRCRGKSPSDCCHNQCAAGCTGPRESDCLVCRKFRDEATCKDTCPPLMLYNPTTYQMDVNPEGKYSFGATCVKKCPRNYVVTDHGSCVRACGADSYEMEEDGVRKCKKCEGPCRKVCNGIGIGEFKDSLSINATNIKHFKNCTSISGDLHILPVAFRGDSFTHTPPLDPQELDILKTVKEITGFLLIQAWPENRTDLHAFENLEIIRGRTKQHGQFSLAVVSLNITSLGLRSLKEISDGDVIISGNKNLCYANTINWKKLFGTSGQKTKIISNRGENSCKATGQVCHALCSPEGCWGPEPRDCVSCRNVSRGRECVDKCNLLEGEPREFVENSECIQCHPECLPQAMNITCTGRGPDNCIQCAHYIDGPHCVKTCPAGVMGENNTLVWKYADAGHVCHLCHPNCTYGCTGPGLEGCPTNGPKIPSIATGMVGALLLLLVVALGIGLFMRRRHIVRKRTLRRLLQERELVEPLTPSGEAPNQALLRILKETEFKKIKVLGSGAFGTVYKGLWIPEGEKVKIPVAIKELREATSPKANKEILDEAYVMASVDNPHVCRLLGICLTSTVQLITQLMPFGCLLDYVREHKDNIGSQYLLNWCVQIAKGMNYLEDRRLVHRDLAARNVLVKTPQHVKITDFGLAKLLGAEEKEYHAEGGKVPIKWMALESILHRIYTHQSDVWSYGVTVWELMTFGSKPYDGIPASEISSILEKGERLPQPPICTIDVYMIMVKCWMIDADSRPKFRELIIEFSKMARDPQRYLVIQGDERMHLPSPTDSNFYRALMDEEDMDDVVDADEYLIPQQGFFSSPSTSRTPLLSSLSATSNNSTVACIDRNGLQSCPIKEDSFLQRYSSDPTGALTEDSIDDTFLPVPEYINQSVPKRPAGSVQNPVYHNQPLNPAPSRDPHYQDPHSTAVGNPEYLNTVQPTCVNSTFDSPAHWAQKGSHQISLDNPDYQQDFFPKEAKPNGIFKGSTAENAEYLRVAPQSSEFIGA

T3 sequence (P53667 whole entry): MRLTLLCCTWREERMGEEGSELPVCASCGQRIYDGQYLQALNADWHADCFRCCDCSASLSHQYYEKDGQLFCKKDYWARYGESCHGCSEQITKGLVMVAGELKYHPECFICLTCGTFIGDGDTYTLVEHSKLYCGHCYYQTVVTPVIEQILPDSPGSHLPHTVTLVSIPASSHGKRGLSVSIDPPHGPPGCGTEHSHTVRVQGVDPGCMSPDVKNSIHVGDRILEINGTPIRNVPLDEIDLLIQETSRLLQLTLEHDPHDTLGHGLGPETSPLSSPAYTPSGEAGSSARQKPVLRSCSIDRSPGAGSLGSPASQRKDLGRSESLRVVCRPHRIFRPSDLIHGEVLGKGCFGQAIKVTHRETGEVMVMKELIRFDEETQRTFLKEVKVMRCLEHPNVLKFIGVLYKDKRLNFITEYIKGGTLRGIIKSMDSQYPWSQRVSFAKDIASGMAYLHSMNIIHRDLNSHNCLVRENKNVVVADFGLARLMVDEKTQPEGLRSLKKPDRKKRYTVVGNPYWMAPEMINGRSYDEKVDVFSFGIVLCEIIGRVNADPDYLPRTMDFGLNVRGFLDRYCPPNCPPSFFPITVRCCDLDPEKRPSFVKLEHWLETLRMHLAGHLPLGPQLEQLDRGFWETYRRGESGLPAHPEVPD
T2 sequence (O14757 whole entry): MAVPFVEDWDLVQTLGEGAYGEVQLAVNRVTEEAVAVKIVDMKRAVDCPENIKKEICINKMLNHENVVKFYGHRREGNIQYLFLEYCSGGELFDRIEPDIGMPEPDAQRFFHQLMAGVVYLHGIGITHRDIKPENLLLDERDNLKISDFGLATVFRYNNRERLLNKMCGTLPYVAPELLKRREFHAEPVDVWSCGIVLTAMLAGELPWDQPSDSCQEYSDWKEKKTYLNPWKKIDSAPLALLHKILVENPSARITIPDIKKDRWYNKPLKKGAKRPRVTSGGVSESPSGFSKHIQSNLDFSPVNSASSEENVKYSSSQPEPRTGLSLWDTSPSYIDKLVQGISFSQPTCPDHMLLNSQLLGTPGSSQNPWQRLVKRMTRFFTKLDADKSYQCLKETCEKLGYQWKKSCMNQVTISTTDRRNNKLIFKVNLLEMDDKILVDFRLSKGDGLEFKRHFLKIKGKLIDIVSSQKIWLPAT
T4 sequence (P68400 whole entry): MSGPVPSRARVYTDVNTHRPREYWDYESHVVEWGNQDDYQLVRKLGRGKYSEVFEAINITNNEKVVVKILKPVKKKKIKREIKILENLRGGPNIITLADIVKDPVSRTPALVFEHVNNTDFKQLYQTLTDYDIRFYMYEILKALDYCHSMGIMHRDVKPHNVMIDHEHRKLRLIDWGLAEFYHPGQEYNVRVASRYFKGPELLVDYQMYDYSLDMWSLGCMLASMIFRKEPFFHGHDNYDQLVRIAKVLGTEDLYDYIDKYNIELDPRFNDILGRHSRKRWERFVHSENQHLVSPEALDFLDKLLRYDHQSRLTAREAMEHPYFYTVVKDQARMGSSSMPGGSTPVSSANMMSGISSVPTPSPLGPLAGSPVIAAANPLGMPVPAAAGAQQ

`CCCCCCCCCCCCOC(=O)CCC(=O)N1CCN(CCCOc2cc3c(Nc4ccc(F)c(Cl)c4)ncnc3cc2OC)CC1` [Analogue-18, dodecyl 4-(4-(3-(4-(3-chloro-4-fluorophenylamino)-7-methoxyquinazolin-6-yloxy)propyl)piperazin-1-yl)-4-oxobutanoate] was tested, and the remaining activity at 10 µM [1] was 87%, the reducing cell viability ([2]; H1299, 0 to 40 μM, compared with Iressa) was “more effective on reducing cell viability than Iressa” and the toxicity effects ([2]; H1299, 40 μM) was “more than 99%”. The “cell growth of A549 cells” value (A549 cells [3]) was “inhibit cell growth of A549 cells, and Analogue-18 is more effective”, the remaining activity at 10 µM [4] was 69% and the remaining activity at 10 µM [5] was 82%. The “resistance of survivin-overexpressing cells to induced apoptosis” value (A549 cells [6]) was “the transfection of pCT-GFP-sur8 was more resistant to the Analogue-18-induced apoptosis than pCT-GFP2”, the remaining activity at 10 µM [7] was 76% and the IC50 (EGFR protein kinase; by the IVIS system) was ~130 nM. For the same molecule, the IC50 (EGFR protein kinase; by the Luminometer) was ~126 nM.
